Results from ChEMBL document CHEMBL1909046, “DrugMatrix in vitro pharmacology data”.

Key:
[1] = target: T1, Polyunsaturated fatty acid lipoxygenase ALOX15 (Oryctolagus cuniculus, UniProt P12530); assay: biochemical; type: tissue-based, Reticulocytes; details: reticulocytes;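 further: inhibition of 15-lipoxygenase enzyme activity measured with linoleic acid as the substrate; in other assays of this panel Not Active means under 50% inhibition at 10 µM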
T1 sequence (P12530 whole entry): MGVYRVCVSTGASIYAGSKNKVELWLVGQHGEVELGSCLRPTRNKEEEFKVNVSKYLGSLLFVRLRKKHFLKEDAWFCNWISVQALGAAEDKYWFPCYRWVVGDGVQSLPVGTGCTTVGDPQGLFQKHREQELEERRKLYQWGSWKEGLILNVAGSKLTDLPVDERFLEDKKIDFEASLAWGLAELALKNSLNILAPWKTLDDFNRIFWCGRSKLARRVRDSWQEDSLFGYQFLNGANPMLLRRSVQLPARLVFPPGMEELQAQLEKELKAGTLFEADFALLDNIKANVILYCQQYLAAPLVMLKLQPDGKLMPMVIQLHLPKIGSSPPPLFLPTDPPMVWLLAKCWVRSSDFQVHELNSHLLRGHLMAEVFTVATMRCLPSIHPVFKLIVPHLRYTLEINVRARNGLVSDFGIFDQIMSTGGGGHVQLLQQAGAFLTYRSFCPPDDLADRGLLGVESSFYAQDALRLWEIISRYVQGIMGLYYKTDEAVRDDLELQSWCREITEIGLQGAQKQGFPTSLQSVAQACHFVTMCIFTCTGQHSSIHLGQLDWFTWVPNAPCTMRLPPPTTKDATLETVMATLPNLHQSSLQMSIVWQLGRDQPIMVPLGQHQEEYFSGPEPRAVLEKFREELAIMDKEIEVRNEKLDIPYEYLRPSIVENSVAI

[2] = target: T2, Muscarinic acetylcholine receptor M2 (Homo sapiens, UniProt P08172); type: cell membranes, CHO-K1, Membrane; details: cho-k1; further: in other assays of this panel Not Active means under 50% inhibition at 10 µM
T2 sequence (P08172 whole entry): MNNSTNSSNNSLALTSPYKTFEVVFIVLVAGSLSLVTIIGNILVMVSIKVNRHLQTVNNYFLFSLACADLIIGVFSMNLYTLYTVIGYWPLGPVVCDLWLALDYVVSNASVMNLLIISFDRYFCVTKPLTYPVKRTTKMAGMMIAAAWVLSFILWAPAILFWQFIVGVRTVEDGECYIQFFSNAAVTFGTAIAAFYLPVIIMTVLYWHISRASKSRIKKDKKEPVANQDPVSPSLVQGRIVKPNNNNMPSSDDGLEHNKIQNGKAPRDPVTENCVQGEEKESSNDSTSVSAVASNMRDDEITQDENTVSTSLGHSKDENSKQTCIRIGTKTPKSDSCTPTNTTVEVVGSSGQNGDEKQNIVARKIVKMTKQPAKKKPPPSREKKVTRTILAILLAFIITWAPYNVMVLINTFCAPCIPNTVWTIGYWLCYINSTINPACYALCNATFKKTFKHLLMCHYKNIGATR

Nitric oxide synthase 1 = Nitric oxide synthase 1 (Rattus norvegicus, UniProt P29476); type: tissue-based, Cerebellum; further: in other assays of this panel Not Active means under 50% inhibition at 10 µM
Sequence of Nitric oxide synthase 1 (P29476 whole entry): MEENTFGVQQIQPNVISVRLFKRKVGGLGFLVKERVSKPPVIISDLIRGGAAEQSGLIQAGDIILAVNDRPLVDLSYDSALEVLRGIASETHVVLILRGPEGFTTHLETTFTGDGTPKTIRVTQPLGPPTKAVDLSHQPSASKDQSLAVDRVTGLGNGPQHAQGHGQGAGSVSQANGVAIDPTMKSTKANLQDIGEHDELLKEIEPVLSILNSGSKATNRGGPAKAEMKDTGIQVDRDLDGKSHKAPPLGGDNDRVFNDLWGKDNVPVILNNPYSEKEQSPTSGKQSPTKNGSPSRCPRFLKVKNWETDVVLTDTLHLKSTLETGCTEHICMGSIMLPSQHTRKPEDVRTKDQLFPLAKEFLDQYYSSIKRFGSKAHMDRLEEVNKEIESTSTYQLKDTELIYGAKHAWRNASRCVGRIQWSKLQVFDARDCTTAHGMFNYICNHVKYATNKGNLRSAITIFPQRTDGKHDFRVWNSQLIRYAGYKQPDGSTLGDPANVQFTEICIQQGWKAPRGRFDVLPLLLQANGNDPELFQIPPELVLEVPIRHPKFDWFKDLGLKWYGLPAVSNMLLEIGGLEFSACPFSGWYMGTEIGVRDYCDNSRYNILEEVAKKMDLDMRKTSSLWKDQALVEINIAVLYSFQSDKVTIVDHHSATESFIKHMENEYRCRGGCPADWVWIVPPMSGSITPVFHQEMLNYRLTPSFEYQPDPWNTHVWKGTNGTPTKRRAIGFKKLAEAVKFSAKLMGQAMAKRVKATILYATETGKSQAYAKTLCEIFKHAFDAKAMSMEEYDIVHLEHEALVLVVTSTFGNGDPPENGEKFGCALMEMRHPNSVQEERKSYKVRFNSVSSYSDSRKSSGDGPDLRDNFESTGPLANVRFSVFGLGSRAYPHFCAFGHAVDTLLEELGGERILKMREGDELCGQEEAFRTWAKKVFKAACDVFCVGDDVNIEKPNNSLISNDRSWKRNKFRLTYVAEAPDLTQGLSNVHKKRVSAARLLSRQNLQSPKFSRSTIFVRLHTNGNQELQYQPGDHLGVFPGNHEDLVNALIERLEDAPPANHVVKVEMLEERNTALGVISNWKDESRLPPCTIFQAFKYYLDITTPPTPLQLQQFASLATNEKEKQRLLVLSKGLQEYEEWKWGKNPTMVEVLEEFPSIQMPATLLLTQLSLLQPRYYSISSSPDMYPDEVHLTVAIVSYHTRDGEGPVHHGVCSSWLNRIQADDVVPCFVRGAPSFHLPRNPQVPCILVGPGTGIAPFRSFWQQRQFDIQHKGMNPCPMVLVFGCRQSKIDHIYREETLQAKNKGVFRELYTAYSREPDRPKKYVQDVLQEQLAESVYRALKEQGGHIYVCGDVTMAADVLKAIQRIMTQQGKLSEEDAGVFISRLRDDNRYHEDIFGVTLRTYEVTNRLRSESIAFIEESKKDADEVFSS

[3] = target: Kappa-type opioid receptor (Homo sapiens, UniProt P41145); assay: DRUGMATRIX: Opiate kappa (OP2, KOP) radioligand binding (ligand: [3H] Diprenorphine); type: cell membranes, HEK293, Membrane; details: hek293; Not Active = under 50% inhibition at 10 µM
Sequence of Kappa-type opioid receptor (P41145 whole entry): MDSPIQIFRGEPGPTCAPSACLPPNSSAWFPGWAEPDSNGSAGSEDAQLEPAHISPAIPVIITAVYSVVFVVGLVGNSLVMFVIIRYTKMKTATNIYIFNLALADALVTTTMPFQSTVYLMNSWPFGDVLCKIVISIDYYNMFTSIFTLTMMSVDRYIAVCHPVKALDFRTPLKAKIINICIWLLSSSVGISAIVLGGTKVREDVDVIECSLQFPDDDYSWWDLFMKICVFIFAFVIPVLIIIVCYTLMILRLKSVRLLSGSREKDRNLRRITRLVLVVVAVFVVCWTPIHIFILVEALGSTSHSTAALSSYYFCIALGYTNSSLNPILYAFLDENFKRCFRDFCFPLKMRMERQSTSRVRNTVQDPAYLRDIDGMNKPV

[4] = target: T3, Nitric oxide synthase, inducible (Mus musculus, UniProt P29477); set-up: species or system Escherichia coli;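 further: inhibition of iNOS enzyme activity measured with L-arginine as substrate; in other assays of this panel Not Active means under 50% inhibition at 10 µM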
T3 sequence (P29477 whole entry): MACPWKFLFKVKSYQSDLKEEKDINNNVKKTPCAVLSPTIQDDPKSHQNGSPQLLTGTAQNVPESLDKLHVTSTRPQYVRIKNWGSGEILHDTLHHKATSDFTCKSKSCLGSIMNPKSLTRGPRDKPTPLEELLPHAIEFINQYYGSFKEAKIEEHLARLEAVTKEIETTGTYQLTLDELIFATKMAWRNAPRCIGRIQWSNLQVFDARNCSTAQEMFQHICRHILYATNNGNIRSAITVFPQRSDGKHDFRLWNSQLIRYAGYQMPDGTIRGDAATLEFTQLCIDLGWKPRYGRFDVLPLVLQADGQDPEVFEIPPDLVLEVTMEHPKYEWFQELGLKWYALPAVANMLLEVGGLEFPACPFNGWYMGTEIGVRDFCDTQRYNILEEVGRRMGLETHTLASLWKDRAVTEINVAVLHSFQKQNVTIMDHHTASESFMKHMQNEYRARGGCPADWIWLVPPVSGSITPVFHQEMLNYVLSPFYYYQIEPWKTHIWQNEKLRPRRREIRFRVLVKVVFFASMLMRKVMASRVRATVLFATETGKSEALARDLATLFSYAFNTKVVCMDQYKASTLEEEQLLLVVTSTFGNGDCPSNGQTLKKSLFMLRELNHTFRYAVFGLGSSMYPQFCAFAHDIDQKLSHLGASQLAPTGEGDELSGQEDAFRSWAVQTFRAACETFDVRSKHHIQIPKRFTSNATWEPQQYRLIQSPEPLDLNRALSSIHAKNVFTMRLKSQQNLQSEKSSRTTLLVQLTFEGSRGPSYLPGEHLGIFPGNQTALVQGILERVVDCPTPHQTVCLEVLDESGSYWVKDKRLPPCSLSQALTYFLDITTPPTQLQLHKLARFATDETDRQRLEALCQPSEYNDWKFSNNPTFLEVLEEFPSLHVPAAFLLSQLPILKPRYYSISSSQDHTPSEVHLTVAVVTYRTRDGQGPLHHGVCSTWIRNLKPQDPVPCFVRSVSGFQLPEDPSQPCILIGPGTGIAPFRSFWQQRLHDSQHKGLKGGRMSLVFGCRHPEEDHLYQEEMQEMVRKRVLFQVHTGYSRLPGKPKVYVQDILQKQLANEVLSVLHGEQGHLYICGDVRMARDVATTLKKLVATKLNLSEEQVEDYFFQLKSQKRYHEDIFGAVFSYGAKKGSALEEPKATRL

[5] = target: Protein kinase C alpha type (Homo sapiens, UniProt P17252); type: cell-based; details: sf9
[6] = target: T4, C-C chemokine receptor type 4 (Homo sapiens, UniProt P51679); type: cell membranes, Membrane; details: chem-1; further: in other assays of this panel Not Active means under 50% inhibition at 10 µM
T4 sequence (P51679 whole entry): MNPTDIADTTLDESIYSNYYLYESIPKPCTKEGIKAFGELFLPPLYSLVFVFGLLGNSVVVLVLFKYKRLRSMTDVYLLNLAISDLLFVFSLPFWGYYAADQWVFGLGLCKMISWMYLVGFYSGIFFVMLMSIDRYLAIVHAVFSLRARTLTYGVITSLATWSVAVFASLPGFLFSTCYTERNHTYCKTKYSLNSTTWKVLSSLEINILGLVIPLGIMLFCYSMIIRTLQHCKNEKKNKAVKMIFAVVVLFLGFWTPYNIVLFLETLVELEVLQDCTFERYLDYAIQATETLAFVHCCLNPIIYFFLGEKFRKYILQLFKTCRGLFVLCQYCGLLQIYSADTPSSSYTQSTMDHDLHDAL

[7] = DRUGMATRIX: Glutamate, NMDA, Agonism radioligand binding (ligand: [3H] CGP-39653); type: cell membranes, Rattus norvegicus, Wistar, Cerebral cortex, Membrane; details: Not Active = under 50% inhibition at 10 µM

Cn1cnc([N+](=O)[O-])c1Sc1ncnc2nc[nH]c12 [AZATHIOPRINE]
Not Active: IC50 [1] | IC50 [2] | IC50 (Nitric oxide synthase 1) | IC50 [3] | IC50 [4] | IC50 [5] | IC50 [6] | IC50 [7] | Ki [7]

COC1=CC(=O)C[C@@H](C)[C@]12Oc1c(Cl)c(OC)cc(OC)c1C2=O [GRISEOFULVIN]
Not Active: IC50 [1] | IC50 [2] | IC50 (Nitric oxide synthase 1) | IC50 [3] | IC50 [4] | IC50 [5] | IC50 [6] | IC50 [7] | Ki [7]

O=C1CN=C(c2ccccc2)c2cc([N+](=O)[O-])ccc2N1 [NITRAZEPAM]
Not Active: IC50 [1] | IC50 [2] | IC50 (Nitric oxide synthase 1) | IC50 [3] | IC50 [4] | IC50 [5] | IC50 [6] | IC50 [7] | Ki [7]

CCc1cccc2c3c([nH]c12)C(CC)(CC(=O)O)OCC3 (stereo unspecified) [ETODOLAC]
Not Active: IC50 [1] | IC50 [2] | IC50 (Nitric oxide synthase 1) | IC50 [3] | IC50 [4] | IC50 [5] | IC50 [6] | IC50 [7] | Ki [7]

CN(C)[C@@H]1C(O)=C(C(N)=O)C(=O)[C@@]2(O)C(O)=C3C(=O)c4c(O)cccc4[C@@](C)(O)[C@H]3[C@H](O)[C@@H]12 [OXYTETRACYCLINE]
Not Active: IC50 [1] | IC50 [2] | IC50 (Nitric oxide synthase 1) | IC50 [3] | IC50 [4] | IC50 [5] | IC50 [6] | IC50 [7] | Ki [7]

CN(C)CCCC1(c2ccc(F)cc2)OCc2cc(C#N)ccc21 (stereo unspecified) [CITALOPRAM]
Not Active: IC50 [1] | IC50 [2] | IC50 (Nitric oxide synthase 1) | IC50 [3] | IC50 [4] | IC50 [5] | IC50 [6] | IC50 [7] | Ki [7]

CCCSc1ccc2nc(NC(=O)OC)[nH]c2c1 [ALBENDAZOLE]
Not Active: IC50 [1] | IC50 [2] | IC50 (Nitric oxide synthase 1) | IC50 [3] | IC50 [4] | IC50 [5] | IC50 [6] | IC50 [7] | Ki [7]

Oc1cccc2cccnc12 [OXYQUINOLINE]
Not Active: IC50 [1] | IC50 [2] | IC50 (Nitric oxide synthase 1) | IC50 [3] | IC50 [4] | IC50 [5] | IC50 [6] | IC50 [7] | Ki [7]

Cc1[nH]cnc1CN1CCc2c(c3ccccc3n2C)C1=O [ALOSETRON]
Not Active: IC50 [1] | IC50 [2] | IC50 (Nitric oxide synthase 1) | IC50 [3] | IC50 [4] | IC50 [5] | IC50 [6] | IC50 [7] | Ki [7]

CCCc1cc(=O)[nH]c(=S)[nH]1 [PROPYLTHIOURACIL]
Not Active: IC50 [1] | IC50 [2] | IC50 (Nitric oxide synthase 1) | IC50 [3] | IC50 [4] | IC50 [5] | IC50 [6] | IC50 [7] | Ki [7]

Nc1nc2c(ncn2COC(CO)CO)c(=O)[nH]1 [GANCICLOVIR]
Not Active: IC50 [1] | IC50 [2] | IC50 (Nitric oxide synthase 1) | IC50 [3] | IC50 [4] | IC50 [5] | IC50 [6] | IC50 [7] | Ki [7]

CC1(C)S[C@@H]2[C@H](NC(=O)[C@H](NC(=O)N3CCNC3=O)c3ccccc3)C(=O)N2[C@H]1C(=O)O [AZLOCILLIN]
Not Active: IC50 [1] | IC50 [2] | IC50 (Nitric oxide synthase 1) | IC50 [3] | IC50 [4] | IC50 [5] | IC50 [6] | IC50 [7] | Ki [7]

COc1ccc2cc(CC(=O)O)ccc2c1
Not Active: IC50 [1] | IC50 [2] | IC50 (Nitric oxide synthase 1) | IC50 [3] | IC50 [4] | IC50 [5] | IC50 [6] | IC50 [7] | Ki [7]

CCOC(=O)OC(C)OC1=C(C(=O)Nc2ccccn2)N(C)S(=O)(=O)c2ccccc21 (stereo unspecified) [AMPIROXICAM]
Not Active: IC50 [1] | IC50 [2] | IC50 (Nitric oxide synthase 1) | IC50 [3] | IC50 [4] | IC50 [5] | IC50 [6] | IC50 [7] | Ki [7]
